This is an account of results in patent US5436229A, “Bisulfite adducts of arginine aldehydes” (Eli Lilly and Company, priority 1994, dated 1995).

Holding throughout (assay type): biochemical
In one test the target is human thrombin (Homo sapiens, UniProt P00734). The test can be described thus: Thrombin amidase inhibition (Kass), chromogenic substrate. As for the experimental part: The assay is carried out by mixing 50 μl buffer (0.03M Tris, 0.15M NaCl, pH 7.4) with 25 μl of human thrombin solution (purified human thrombin, Enzyme Research Laboratories, South Bend, Ind., at 8 NIH units/ml) and 25 μl of test compound in a solvent (50% aqueous methanol (v:v)). Then 150 μl of an aqueous solution of the chromogenic substate (at 0.25 mg/ml) are added and the rates of hydrolysis of the substrate are measured by monitoring the reactions at 405 nm for the release of p-nitroaniline. Standard curves are constructed by plotting free thrombin concentration against hydrolysis rate. […] The amount of free inhibitor in each assay is calculated by subtracting the number of moles of bound thrombin from the number of moles of added inhibitor (test compound).
The Kass value is the hypothetical equilibrium constant for the reaction between thrombin and the test compound (I) . [formula]
Kass is calculated for a range of concentrations of test compounds and the mean value reported in units of liter per mole.

The target in another test is T1, factor Xa (Homo sapiens, UniProt P00742).
T1 construct: Human factors X, Xa, IXa, XIa, and XIIa are purchased from Enzyme Research Laboratories; purchased Enzyme Research Laboratories, South Bend, Ind
T1 sequence (P00742 235-488 limits assumed): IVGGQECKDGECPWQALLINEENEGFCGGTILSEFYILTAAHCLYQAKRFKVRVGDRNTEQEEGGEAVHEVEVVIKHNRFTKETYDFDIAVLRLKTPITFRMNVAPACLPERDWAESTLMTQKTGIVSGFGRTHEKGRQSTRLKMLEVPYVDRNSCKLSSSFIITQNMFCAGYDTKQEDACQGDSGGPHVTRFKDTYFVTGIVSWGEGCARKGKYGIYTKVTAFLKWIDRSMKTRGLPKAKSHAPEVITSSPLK
T1 sequence (P00742 41-179 partner limits assumed): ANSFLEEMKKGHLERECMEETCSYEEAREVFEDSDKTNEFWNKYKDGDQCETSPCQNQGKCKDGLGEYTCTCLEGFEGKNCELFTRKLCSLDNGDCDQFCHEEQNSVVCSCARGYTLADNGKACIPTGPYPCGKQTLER
As to the kind of experiment: Serine protease inhibition (Kass), factor Xa. As for the experimental part: (§1) By substantially following the procedures described above for human thrombin, and using other human blood coagulation system serine proteases and using fibrinolytic system serine proteases, with the appropriate chromogenic substrates, identified below, the selectivity of the compounds of the present invention with respect to the coagulation factor serine proteases and to the fibronolytic serine proteases are evaluated as well as their substantial lack of interference with human plasma clot fibrinolysis.
(§2) Human factors X, Xa, IXa, XIa, and XIIa are purchased from Enzyme Research Laboratories, South Bend, Ind.; human urokinase from Leo Pharmaceuticals, Denmark; and recombinant activated Protein C (aPC) is prepared at Eli Lilly and Co. substantially according to U.S. Pat. No. 4,981,952 incorporated by reference herein in its entirety. Chromogenic substrates: N-Benzoyl-Ile-Glu-Gly-Arg-p-nitroanilide (for factor Xa); N-Cbz-D-Arg-Gly-Arg-p-nitroanilide (for factor IXa assay as the factor Xa substrate); Pyroglutamyl-Pro-Arg-p-nitroanilide (for Factor XIa and for aPC); H-D-Pro-Phe-Arg-p-nitroanilide (for factor XIIa); and Pyroglutamyl-Gly-Arg-p-nitroanilide (for urokinase); are purchased from KabiVitrum, Stockholm, Sweden, or from Midwest Biotech, Fishers, Ind. Bovine trypsin is purchased from Worthington Biochemicals, Freehold, N.J., and human plasma kallikrein from Kabi Vitrum, Stockholm, Sweden. Chromogenic substrate H-D-Pro-Phe-Arg-p-nitroanilide for plasma kallikrein is purchased from Kabi Vitrum, Stockholm, Sweden. N-Benzoyl-Phe-Val-Arg-p-nitroanilide, the substrate for human thrombin and for trypsin, is synthesized according to procedures described above for the compounds of the present invention, using known methods of peptide coupling from commercially available reactants, or purchaed from Midwest Biotech, Fishers, Ind.

Another test concerns the target T2, Bovine trypsin (Bos taurus, UniProt P00760).
T2 construct: Bovine trypsin is purchased from Worthington Biochemicals; purchased Worthington Biochemicals, Freehold, N.J
T2 sequence (P00760 24-246): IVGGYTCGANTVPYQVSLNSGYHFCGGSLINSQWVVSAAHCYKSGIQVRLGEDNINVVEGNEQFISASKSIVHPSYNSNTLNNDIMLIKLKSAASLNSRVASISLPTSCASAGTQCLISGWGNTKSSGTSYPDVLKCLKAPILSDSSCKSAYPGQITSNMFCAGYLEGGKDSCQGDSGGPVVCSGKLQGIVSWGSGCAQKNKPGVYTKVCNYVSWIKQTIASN
The test can be described thus: Serine protease inhibition (Kass), trypsin. On the procedure: as §1, §2

In another test the target is T3, Human plasmin (Homo sapiens, UniProt P00747).
T3 construct: Human plasmin is purchased from Boehringer Mannheim; purchased Boehringer Mannheim, Indianapolis, Ind
T3 sequence (P00747 581-810 limits assumed): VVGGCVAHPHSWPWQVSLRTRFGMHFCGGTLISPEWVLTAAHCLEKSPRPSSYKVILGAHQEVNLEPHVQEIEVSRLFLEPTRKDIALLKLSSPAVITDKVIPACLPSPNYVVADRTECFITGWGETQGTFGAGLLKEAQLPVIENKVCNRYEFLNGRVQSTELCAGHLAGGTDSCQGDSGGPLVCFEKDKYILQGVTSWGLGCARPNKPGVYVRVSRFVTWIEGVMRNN
T3 sequence (P00747 97-580 partner limits assumed): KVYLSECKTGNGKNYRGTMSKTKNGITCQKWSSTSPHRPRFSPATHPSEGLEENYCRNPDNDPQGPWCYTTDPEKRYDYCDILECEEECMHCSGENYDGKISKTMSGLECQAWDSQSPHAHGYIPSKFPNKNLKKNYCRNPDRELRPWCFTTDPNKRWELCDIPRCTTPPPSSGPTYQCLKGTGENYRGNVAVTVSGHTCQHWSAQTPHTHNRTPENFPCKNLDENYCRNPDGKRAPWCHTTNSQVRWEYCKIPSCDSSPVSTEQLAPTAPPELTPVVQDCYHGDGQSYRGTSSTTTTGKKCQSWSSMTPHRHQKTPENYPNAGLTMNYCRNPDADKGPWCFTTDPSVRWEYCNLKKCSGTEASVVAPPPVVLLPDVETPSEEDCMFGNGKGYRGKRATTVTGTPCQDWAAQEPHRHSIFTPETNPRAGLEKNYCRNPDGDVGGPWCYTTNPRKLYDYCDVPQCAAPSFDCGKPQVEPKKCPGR
As to the kind of experiment: Serine protease inhibition (Kass), plasmin. On the procedure:
as §1
(§3) Human plasmin is purchased from Boehringer Mannheim, Indianapolis, Ind.; nt-PA is purchased as single chain activity reference from American Diagnostica, Greenwich, Conn.; modified-t-PA6 (mt-PA6) is prepared at Eli Lilly and Company by procedure known in the art (See, Burck, et al., J. Biol. Chem., 265, […] (1990). Plasmin chromogenic substrate H-D-Val-Leu-Lys-p-nitroanilide and tissue plasminogen activator (t-PA) substrate H-D-Ile-Pro-Arg-p-nitroanilide are purchased from Kabi Vitrum, Stockholm, Sweden.

For test [1], the target named is T4, tissue plasminogen activator (t-PA) (Homo sapiens, UniProt P00750).
T4 construct: purchased American Diagnostica, Greenwich, Conn
T4 sequence (P00750 36-562): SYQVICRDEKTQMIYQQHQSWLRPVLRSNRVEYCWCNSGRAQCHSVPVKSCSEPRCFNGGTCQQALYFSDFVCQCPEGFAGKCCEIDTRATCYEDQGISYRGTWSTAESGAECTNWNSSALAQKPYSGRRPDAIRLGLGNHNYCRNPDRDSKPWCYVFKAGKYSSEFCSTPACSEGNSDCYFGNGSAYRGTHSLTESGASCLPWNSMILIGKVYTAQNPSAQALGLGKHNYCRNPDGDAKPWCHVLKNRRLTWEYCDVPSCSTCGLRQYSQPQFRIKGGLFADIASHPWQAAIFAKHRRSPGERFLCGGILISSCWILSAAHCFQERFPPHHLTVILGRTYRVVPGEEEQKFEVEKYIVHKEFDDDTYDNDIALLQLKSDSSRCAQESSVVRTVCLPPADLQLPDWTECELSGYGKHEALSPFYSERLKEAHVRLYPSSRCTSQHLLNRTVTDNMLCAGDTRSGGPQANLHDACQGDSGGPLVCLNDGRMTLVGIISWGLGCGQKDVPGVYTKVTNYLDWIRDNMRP
The test can be described thus: Serine protease inhibition (Kass), t-PA. On the procedure:
as §1, §3

The subject of test [2] is human plasma. As to the kind of experiment: Human plasma anticoagulation, thrombin time (TT). On the procedure:
(§4) Fibrinogen is prepared from in-date ACD human blood as the fraction I-2 according to previous procedures and specifications. Smith, Biochem. […] Coagulation reagents ACTIN, Thromboplastin, and Human plasma are from Baxter Healthcare Corp., Dade Division, Miami, Fla. Bovine thrombin from Parke-Davis (Detroit, Mich.) is used for coagulation assays in plasma. Coagulation assay procedures are as previously described. […] A CoAScreener coagulation instrument (American LABor, Inc.) is used for all coagulation assay measurements. […] The compounds of formula I are added to human or animal plasma over a wide range of concentrations to determine prolongation effects on the APTT, PT, and TT assays. Linear extrapolations are performed to estimate the concentrations required to double the clotting time for each assay.

For test [3], the system named is human plasma. As to the kind of experiment: Human plasma anticoagulation, activated partial thromboplastin time (APTT). On the procedure:
as §4

The test system of test [4] is human plasma. The test can be described thus: Human plasma anticoagulation, prothrombin time (PT). On the procedure:
as §4

Consider `CC(C)C1N[C@@H](C(=O)N2CCC[C@H]2C(=O)N[C@H](C=O)CCCNC(=N)N)C(C)(C)S1.Cl.Cl` (stereo partly drawn) [Example 5, D-2-Isopropyl-5,5-Dimethylthiazolidinyl-4-Carbonyl-L-Prolinyl-L-Arginine Aldehyde Dihydrochloride], for which the “Kass Human Thrombin” value on human thrombin turned out to be 4 L/mol × 10^6.
As for `Cl.Cl.Cl.N=C(N)NCCC[C@@H](C=O)NC(=O)[C@@H]1CCCN1C(=O)[C@H]1C[C@H](Oc2ccc3ccccc3c2)CN1.O` [Example 6, trans-4-(2-Naphthyloxy)-D-Prolinyl-L-Prolinyl-L-Arginine Aldehyde Trihydrochloride Monohydrate], the “Kass Human Thrombin” value at human thrombin stood at 21 L/mol × 10^6.
With `Cl.Cl.Cl.N=C(N)NCCC[C@@H](C=O)NC(=O)[C@@H]1CCCN1C(=O)[C@H]1C[C@H](Sc2ccccc2)CN1.O.O.O` [Example 14, trans-4-phenylthio-D-prolinyl-L-prolinyl-L-arginine aldehyde trihydrochloride trihydrate], at human thrombin, the “Kass Human Thrombin” value came out at 37 L/mol × 10^6.
Consider `Cl.Cl.N=C(N)NCCC[C@@H](C=O)NC(=O)[C@@H]1CCCN1C(=O)CN1CCCCC1.O` [Example 18, 2-(2-Piperidino)acetyl-L-Pro-L-Arginine Aldehyde Dihydrochloride Monohydrate], for which the “Kass Human Thrombin” value at human thrombin worked out at 1 L/mol × 10^6.
For `Cl.Cl.N=C(N)NCCC[C@@H](C=O)NC(=O)[C@@H]1CCCN1C(=O)C1CCCNC1.O` (stereo partly drawn) [Example 19, 3-piperidinocarbonyl-L-Pro-L-Arginine Aldehyde Dihydrochloride Monohydrate], at human thrombin, the “Kass Human Thrombin” value amounted to 2 L/mol × 10^6.
Same read-out and setting: then `Cl.Cl.N=C(N)NCCC[C@@H](C=O)NC(=O)[C@@H]1CCCN1C(=O)C1CNC2CCCCC21.O` (stereo partly drawn) [Example 20, 3-perhydroindolylcarbonyl-L-pro-L-Arginine Aldehyde Dihydrochloride Monohydrate], with 11 L/mol × 10^6; and `CNC1CCCCC1C(=O)N1CCC[C@H]1C(=O)N[C@H](C=O)CCCNC(=N)N.Cl.Cl` (stereo partly drawn) [Example 21, 2-(N-methyl)aminocyclohexyl-carbonyl-L-Pro-L-Arginine Aldehyde Dihydrochloride], with 18.4 L/mol × 10^6.
For `Cl.Cn1c(C(=O)N[C@@](C)(C(=O)N2CC[C@H]2C(=O)N[C@H](C=O)CCCNC(=N)N)c2ccccc2)cc2ccccc21` [Example 23, 1-methylindole-2-carbonyl-D-(α-methyl)phenylglycine-Azt-Arg-H hydrochloride], the “Kass Human Thrombin” value at human thrombin was determined as 79 L/mol × 10^6. On factor Xa, the “Kass Xa” value came to 0.06 L/mol × 10^6. For the same molecule, the “Kass Trypsin” value on Bovine trypsin came out at 29 L/mol × 10^6. In addition, the “Kass Plasmin” value at Human plasmin stood at 0.55 L/mol × 10^6. The “Kass t-PA” value in test [1] is reported as 0.02 L/mol × 10^6. For the same molecule, in the test on human plasma [2], the “2 × Clotting time TT” value is on record as 59 ng/mL. Moreover, in the test on human plasma [3], the “2 × Clotting time APTT” value is 1,800 ng/mL. In the test on human plasma [4], the “2 × Clotting time PT” value is 1,980 ng/mL.
Consider `Cl.Cl.N=C(N)NCCC[C@@H](C=O)NC(=O)[C@@H]1CCCN1C(=O)[C@@]1(Cc2ccccc2)CCCN1.O.O` [Example 24, D-Prolinyl (αbenzyl)-L-Prolinyl-L-arginine aldehyde, dihydrochloride dihydrate], for which the “Kass Human Thrombin” value at human thrombin is given as 12 L/mol × 10^6. Further, the “Kass Xa” value at factor Xa worked out at 0.13 L/mol × 10^6. For the same molecule, the “Kass Trypsin” value at Bovine trypsin worked out at 14 L/mol × 10^6. The “Kass Plasmin” value on Human plasmin amounted to 0.31 L/mol × 10^6. Moreover, the “Kass t-PA” value in test [1] worked out at 0.0034 L/mol × 10^6. Moreover, the “2 × Clotting time TT” value in the test on human plasma [2] came to 160 ng/mL. Further, the “2 × Clotting time APTT” value in the test on human plasma [3] is recorded as 2,100 ng/mL. Also, the “2 × Clotting time PT” value with human plasma [4] is given as 3,600 ng/mL.
`Cl.Cl.N=C(N)NCCC[C@@H](C=O)NC(=O)[C@]1(Cc2ccccc2)CCCN1C(=O)[C@@H]1CCCN1` [Example 25, Prolinyl (αbenzyl)-L-Prolinyl-L-Arginine Aldehyde Dihydrochloride]: the “Kass Human Thrombin” value at human thrombin is reported as 350 L/mol × 10^6. Also, the “Kass Xa” value at factor Xa is 0.27 L/mol × 10^6. Further, the “Kass Trypsin” value at Bovine trypsin amounted to 43 L/mol × 10^6. Besides, on Human plasmin, the “Kass Plasmin” value stood at 0.77 L/mol × 10^6. The “Kass t-PA” value in test [1] turned out to be 0.0045 L/mol × 10^6. The “2 × Clotting time TT” value with human plasma [2] is on record as 28 ng/mL. The “2 × Clotting time APTT” value in the test on human plasma [3] is reported as 960 ng/mL. For the same molecule, in the test on human plasma [4], the “2 × Clotting time PT” value is on record as 1,400 ng/mL.
Take `Cl.Cl.N=C(N)NCCC[C@@H](C=O)NC(=O)[C@@H]1CCCN1C(=O)C1(Cc2ccccc2)CCN1` (stereo partly drawn) [Example 26]: the “Kass Human Thrombin” value at human thrombin was determined as 75 L/mol × 10^6. Moreover, the “Kass Xa” value at factor Xa came out at 0.12 L/mol × 10^6. The “Kass Trypsin” value on Bovine trypsin is 17 L/mol × 10^6. The “Kass Plasmin” value at Human plasmin is listed as 0.17 L/mol × 10^6. The “Kass t-PA” value in test [1] came to 0.0028 L/mol × 10^6. Further, the “2 × Clotting time TT” value in the test on human plasma [2] turned out to be 42 ng/mL. The “2 × Clotting time APTT” value with human plasma [3] is listed as 1,400 ng/mL. For the same molecule, in the test with human plasma [4], the “2 × Clotting time PT” value is 1,100 ng/mL.
On to `CCOC(=O)N[C@H](Cc1ccccc1)C(=O)N1CCC[C@@]1(C)C(=O)N[C@H](C=O)CCCNC(=N)N.Cl` [Example 27, N-ethoxycarbonyl-D-Phenylalanyl(α-methyl)-L-prolinyl-L-arginine aldehyde hydrochloride], for which the “Kass Human Thrombin” value on human thrombin is on record as 75 L/mol × 10^6. Further, the “Kass Xa” value on factor Xa is reported as 0.044 L/mol × 10^6. In addition, the “Kass Trypsin” value at Bovine trypsin stood at 2.4 L/mol × 10^6. Further, the “Kass Plasmin” value on Human plasmin stood at 0.059 L/mol × 10^6. The “Kass t-PA” value in test [1] is recorded as 0.00079 L/mol × 10^6. The “2 × Clotting time TT” value with human plasma [2] was determined as 48 ng/mL. In addition, the “2 × Clotting time APTT” value with human plasma [3] was 2,500 ng/mL. Also, the “2 × Clotting time PT” value in the test on human plasma [4] is recorded as 2,200 ng/mL.
Turning to `CCCCC(CCCC)(NC(=O)OCC)C(=O)N1CCC[C@H]1C(=O)N[C@H](C=O)CCCNC(=N)N.Cl` [Example 42, N-ethoxycarbonylglycinyl(α,αdi-n-butyl)-L-prolinyl-L-arginine aldehyde hydrochloride], the “Kass Xa” value at factor Xa is recorded as 0.22 L/mol × 10^6. Further, on Bovine trypsin, the “Kass Trypsin” value is on record as 38 L/mol × 10^6. At Human plasmin, the “Kass Plasmin” value worked out at 0.24 L/mol × 10^6. Also, the “Kass t-PA” value in test [1] came to 0.010 L/mol × 10^6. Also, the “2 × Clotting time TT” value in the test with human plasma [2] is reported as 120 ng/mL. Moreover, in the test with human plasma [3], the “2 × Clotting time APTT” value is on record as 3,000 ng/mL. In the test with human plasma [4], the “2 × Clotting time PT” value is given as 2,800 ng/mL.
